Laboratory results: the supplement of paper PMC11208160

test: recombinant UMI read abundance after kanamycin selection (control-corrected) (log10(CPM+1)); higher = more efficient recombination; extreme values may be limits of the assay; sequences stand for … in AGTGCAGAGAAAATCGGCCAGTTTTCTCTGCCTGCAGTCCGCATGCCGTGGGACCCCTTGGGTTCTAACCTGTTGCCTAGATTTATGCAGCGGACTGCCTTTCTCCCAAAGTGATAAACCGG…AGGTTGGTTTCACT; site = the 11-nt donor
Method in brief: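 Under IPTG (0.07 mM) plus kanamycin, or without selection, Escherichia coli carrying a UMI-tagged donor and donor-binding-loop pair library and a target plasmid for the IS621 bridge recombinase were plated in two replicates. Recombinant UMIs were PCR-amplified across the donor–target junction and sequenced. Counts were converted to CPM, averaged over replicates, scaled by control-derived factors and reported as log10(CPM+1).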
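Further: IS621 bridge recombinase in Escherichia coli cells against a fixed T5 target plasmid.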

Row | Sequence | recombinant UMI read abundance (log10)
1 | CGGGAGCCATGGACCGGTTTTCCCGGTAATCCGTATTTGCC (site CGGGAGGCTGG) | 0.991
2 | CGGGAGCCATGGACCGGTTTTCCCGGTAATCCGTATTTGCC (site CGGGAGTCTGG) | 1
3 | CGGGAGTCATGGACCGGTTTTCCCGGTAATCCGTATTTGCC (site AGGGAGTCTGG) | 0
4 | CGGGAGTCATGGACCGGTTTTCCCGGTAATCCGTATTTGCC (site CAGGAGTCTGG) | 2.51
5 | CGGGAGTCATGGACCGGTTTTCCCGGTAATCCGTATTTGCC (site CCGGAGTCTGG) | 0
6 | CGGGAGTCATGGACCGGTTTTCCCGGTAATCCGTATTTGCC (site CGAGAGTCTGG) | 2.48
7 | CGGGAGTCATGGACCGGTTTTCCCGGTAATCCGTATTTGCC (site CGCGAGTCTGG) | 1.69
8 | CGGGAGTCATGGACCGGTTTTCCCGGTAATCCGTATTTGCC (site CGGAAGTCTGG) | 2.67
9 | CGGGAGTCATGGACCGGTTTTCCCGGTAATCCGTATTTGCC (site CGGCAGTCTGG) | 0
10 | CGGGAGTCATGGACCGGTTTTCCCGGTAATCCGTATTTGCC (site CGGGAATCTGG) | 2.83
11 | CGGGAGTCATGGACCGGTTTTCCCGGTAATCCGTATTTGCC (site CGGGACTCTGG) | 0
12 | CGGGAGTCATGGACCGGTTTTCCCGGTAATCCGTATTTGCC (site CGGGAGACTGG) | 1.54
13 | CGGGAGTCATGGACCGGTTTTCCCGGTAATCCGTATTTGCC (site CGGGAGCCTGG) | 0
14 | CGGGAGTCATGGACCGGTTTTCCCGGTAATCCGTATTTGCC (site CGGGAGGCTGG) | 0.103
15 | CGGGAGTCATGGACCGGTTTTCCCGGTAATCCGTATTTGCC (site CGGGAGTCTAG) | 2.02
16 | CGGGAGTCATGGACCGGTTTTCCCGGTAATCCGTATTTGCC (site CGGGAGTCTCG) | 1.51
17 | CGGGAGTCATGGACCGGTTTTCCCGGTAATCCGTATTTGCC (site CGGGAGTCTGA) | 2.66
18 | CGGGAGTCATGGACCGGTTTTCCCGGTAATCCGTATTTGCC (site CGGGAGTCTGC) | 2.08
19 | CGGGAGTCATGGACCGGTTTTCCCGGTAATCCGTATTTGCC (site CGGGAGTCTGG) | 1.67
20 | CGGGAGTCATGGACCGGTTTTCCCGGTAATCCGTATTTGCC (site CGGGAGTCTGT) | 1.75
21 | CGGGAGTCATGGACCGGTTTTCCCGGTAATCCGTATTTGCC (site CGGGAGTCTTG) | 2.01
22 | CGGGAGTCATGGACCGGTTTTCCCGGTAATCCGTATTTGCC (site CGGGATTCTGG) | 0
23 | CGGGAGTCATGGACCGGTTTTCCCGGTAATCCGTATTTGCC (site CGGGCGTCTGG) | 0

Row | Sequence | recombinant UMI read abundance (log10)
24 | CGGGAGTCATGGACCGGTTTTCCCGGTAATCCGTATTTGCC (site CGGGGGTCTGG) | 1.3
25 | CGGGAGTCATGGACCGGTTTTCCCGGTAATCCGTATTTGCC (site CGGGTGTCTGG) | 0
26 | CGGGAGTCATGGACCGGTTTTCCCGGTAATCCGTATTTGCC (site CGGTAGTCTGG) | 0.878
27 | CGGGAGTCATGGACCGGTTTTCCCGGTAATCCGTATTTGCC (site CGTGAGTCTGG) | 0.895
28 | CGGGAGTCATGGACCGGTTTTCCCGGTAATCCGTATTTGCC (site CTGGAGTCTGG) | 2.06
29 | CGGGAGTCATGGACCGGTTTTCCCGGTAATCCGTATTTGCC (site GGGGAGTCTGG) | 0
30 | CGGGAGTCATGGACCGGTTTTCCCGGTAATCCGTATTTGCC (site TGGGAGTCTGG) | 0
31 | CGGGATCCATGGACCGGTTTTCCCGGTAATCCGTATTTGAT (site CGGGAACCTAT) | 0.0108
32 | CGGGATCCATGGACCGGTTTTCCCGGTAATCCGTATTTGAT (site CGGGACCCTAT) | 0.492
33 | CGGGATCCATGGACCGGTTTTCCCGGTAATCCGTATTTGAT (site CGGGAGCCTAT) | 0.0289
34 | CGGGATCCATGGACCGGTTTTCCCGGTAATCCGTATTTGAT (site CGGGATCCTAT) | 0.898
35 | CGGGATCCATGGACCGGTTTTCCCGGTAATCCGTATTTGTT (site CGGAATCCTAA) | 0.736
36 | CGGGATCCATGGACCGGTTTTCCCGGTAATCCGTATTTGTT (site CGGCATCCTAA) | 0.02
37 | CGGGATCCATGGACCGGTTTTCCCGGTAATCCGTATTTGTT (site CGGGATCCTAA) | 0.85
38 | CGGGATCCATGGACCGGTTTTCCCGGTAATCCGTATTTGTT (site CGGTATCCTAA) | 0.243
39 | CGGGCACCATGGACCGGTTTTCCCGGTAATCCGTATTTGAT (site CGGGAACCTAT) | 0
40 | CGGGCACCATGGACCGGTTTTCCCGGTAATCCGTATTTGAT (site CGGGCACCTAT) | 0
41 | CGGGCACCATGGACCGGTTTTCCCGGTAATCCGTATTTGAT (site CGGGGACCTAT) | 0.0117
42 | CGGGCACCATGGACCGGTTTTCCCGGTAATCCGTATTTGAT (site CGGGTACCTAT) | 0
43 | CGGGCATCATGGACCGGTTTTCCCGGTAATCCGTATTTGCT (site CGATCATCTAG) | 0
44 | CGGGCATCATGGACCGGTTTTCCCGGTAATCCGTATTTGCT (site CGGACATCTAG) | 0.763
45 | CGGGCATCATGGACCGGTTTTCCCGGTAATCCGTATTTGCT (site CGGCCATCTAG) | 0
46 | CGGGCATCATGGACCGGTTTTCCCGGTAATCCGTATTTGCT (site CGGGCATCTAG) | 1.86

Row | Sequence | recombinant UMI read abundance (log10)
47 | CGGGCATCATGGACCGGTTTTCCCGGTAATCCGTATTTGCT (site CGGTCATCTAG) | 0
48 | CGGGCATCATGGACCGGTTTTCCCGGTAATCCGTATTTGTA (site CGGGCATCTTA) | 2.38
49 | CGGGCTGCATGGACCGGTTTTCCCGGTAATCCGTATTTGAG (site CGGGCTGCTCT) | 1.37
50 | CGGGGATCATGGACCGGTTTTCCCGGTAATCCGTATTTGTT (site CGGGGATCTAA) | 2.63
51 | CGGGTCCCATGGACCGGTTTTCCCGGTAATCCGTATTTGCC (site CGGGTCCCTGG) | 1.39
52 | CGGTACCCATGGACCGGTTTTCCCGGTAATCCGTATTTGGT (site CGGTACCCTAC) | 0.0101
53 | CGGTAGACATGGACCGGTTTTCCCGGTAATCCGTATTTGAG (site CGATAGACTCT) | 2.01
54 | CGGTAGACATGGACCGGTTTTCCCGGTAATCCGTATTTGAG (site CGCTAGACTCT) | 0.37
55 | CGGTAGACATGGACCGGTTTTCCCGGTAATCCGTATTTGAG (site CGGTAGACTCT) | 1.9
56 | CGGTAGACATGGACCGGTTTTCCCGGTAATCCGTATTTGAG (site CGTTAGACTCT) | 0.371
57 | CGGTAGTCATGGACCGGTTTTCCCGGTAATCCGTATTTGTT (site CGGTAGTCTAA) | 3.15
58 | CGGTATCCATGGACCGGTTTTCCCGGTAATCCGTATTTGCG (site CGGTATCCTCG) | 0.378
59 | CGGTATCCATGGACCGGTTTTCCCGGTAATCCGTATTTGTC (site CGGAATCCTAA) | 0.00431
60 | CGGTATCCATGGACCGGTTTTCCCGGTAATCCGTATTTGTC (site CGGTATCCTGA) | 0
61 | CGGTCAGCATGGACCGGTTTTCCCGGTAATCCGTATTTGCT (site CGATCATCTAG) | 0
62 | CGGTCAGCATGGACCGGTTTTCCCGGTAATCCGTATTTGCT (site CGGTCAGCTAG) | 1.12
63 | CGGTCGACATGGACCGGTTTTCCCGGTAATCCGTATTTGGG (site CAGTCGACTCC) | 0.0262
64 | CGGTCGACATGGACCGGTTTTCCCGGTAATCCGTATTTGGG (site CCGTCGACTCC) | 0.0265
65 | CGGTCGACATGGACCGGTTTTCCCGGTAATCCGTATTTGGG (site CGGTCGACTCC) | 0.018
66 | CGGTCGACATGGACCGGTTTTCCCGGTAATCCGTATTTGGG (site CTGTCGACTCC) | 0.0407
67 | CGGTCGACATGGACCGGTTTTCCCGGTAATCCGTATTTGTT (site CGATCGACTAA) | 0.0167
68 | CGGTCGACATGGACCGGTTTTCCCGGTAATCCGTATTTGTT (site CGCTCGACTAA) | 0.00476
